{"source": "patent US20040142899A1", "about": "“Compositions and methods for enhanced biostability and altered biodistribution of oligonucleotides in mammals” (ISIS Pharmaceuticals, Inc., priority 1990, published 2004)", "key": {"DNA": {"system": "DNA", "assay": "Tm change due to pyrene conjugation, against DNA", "format": "binding", "conditions": "100 mM Na+, 10 nM phosphate, 0.1 mM EDTA, pH 7, 4 μM strand concentration", "protocol": "(§1) Changes in Tm due to pyrene conjugation were evaluated against both DNA and RNA. Tm was measured in 100 mM Na^+, 10 nM phosphate, 0.1 mM EDTA, pH 7 at 4 μM strand concentration."}, "RNA": {"system": "RNA", "assay": "Tm change due to pyrene conjugation, against RNA", "format": "binding", "conditions": "100 mM Na+, 10 nM phosphate, 0.1 mM EDTA, pH 7, 4 μM strand concentration", "protocol": "as §1"}}}
{"substance": "5′-GCG-TGU*-CTG-CG (5'-GCG-TGU*-CTG-CG; 2'-O-aminohexyl uridine linker, as printed in the source, key not given here) [Oligomer 52, U* from 2′-O-[hexyl-(Ω-N-phthalimido)amino]uridine amidite; amino linker]", "values": [{"measurement": "Tm v. DNA", "setting": "DNA", "value": 50.9, "unit": "°C"}, {"measurement": "Tm v. RNA", "setting": "RNA", "value": 55.5, "unit": "°C"}]}
